Tests used:
[1] = Toxicity against Wistar rat hepatocytes after 6 hrs by trypan blue exclusion method; assay type: cell-based, Hepatocyte; details: read-out: TC50
Plasmodium falciparum [2] = experiment: Antimalarial activity against chloroquine-resistant Plasmodium falciparum K1
Heme [3] = experiment: Binding affinity to heme assessed as binding constant for stepwise binding of 2 equivalent of drug to 1 molecule of heme in presence of 40% DMSO by UV-visible spectroscopy
Plasmodium falciparum [4] = experiment: Antimalarial activity against chloroquine-resistant Plasmodium falciparum J164; assay type: functional, organism-based
[5] = Elimination half life in mouse at 10 mg/kg, po administered as single dose; assay type: ADME, organism-based; parameters: dose 10 mg/kg, route oral; details: in vivo, read-out: beta t1/2 (converted)
Kidney [6] = experiment: Biodistribution in Wistar rat kidney assessed as [3H]labeled drug level at 54 umol/kg, iv after 24 hrs; assay type: ADME, organism-based; details: in vivo
Plasmodium falciparum [7] = experiment: Antimalarial activity against […] Plasmodium falciparum PH3; assay type: functional, organism-based
Mus musculus [8] = experiment: Toxicity in po dosed mouse assessed as induction of hepatotoxicity at drug dose above no observed adverse effects level; assay type: organism-based; details: in vivo
Plasmodium falciparum [9] = experiment: Antimalarial activity against chloroquine-resistant Plasmodium falciparum TM4; assay type: functional, organism-based
Plasmodium falciparum [10] = experiment: Antimalarial activity against chloroquine-resistant Plasmodium falciparum TM6; assay type: functional, organism-based
[11] = Biodistribution in cannulated Wistar rat bile assessed as [3H]labeled drug level at 54 umol/kg, iv after 5 hrs; assay type: ADME, organism-based; details: in vivo
Liver [12] = experiment: Biodistribution in Wistar rat liver assessed as [3H]labeled drug level at 54 umol/kg, iv after 24 hrs; assay type: ADME, organism-based; details: in vivo
Heme [13] = experiment: Binding affinity to heme assessed as binding constant for stepwise binding of 2 molecules of heme to 1 equivalent of drug in presence of 40% DMSO by UV-visible spectroscopy
[14] = Clearance in iv dosed mouse; assay type: ADME, organism-based; details: in vivo
Cytochrome P450 3A4 [15] = molecular target: T1, Cytochrome P450 3A4 (Homo sapiens, UniProt P08684); experiment: Inhibition of human CYP3A4 using DEF substrate
T1 sequence (P08684 whole entry): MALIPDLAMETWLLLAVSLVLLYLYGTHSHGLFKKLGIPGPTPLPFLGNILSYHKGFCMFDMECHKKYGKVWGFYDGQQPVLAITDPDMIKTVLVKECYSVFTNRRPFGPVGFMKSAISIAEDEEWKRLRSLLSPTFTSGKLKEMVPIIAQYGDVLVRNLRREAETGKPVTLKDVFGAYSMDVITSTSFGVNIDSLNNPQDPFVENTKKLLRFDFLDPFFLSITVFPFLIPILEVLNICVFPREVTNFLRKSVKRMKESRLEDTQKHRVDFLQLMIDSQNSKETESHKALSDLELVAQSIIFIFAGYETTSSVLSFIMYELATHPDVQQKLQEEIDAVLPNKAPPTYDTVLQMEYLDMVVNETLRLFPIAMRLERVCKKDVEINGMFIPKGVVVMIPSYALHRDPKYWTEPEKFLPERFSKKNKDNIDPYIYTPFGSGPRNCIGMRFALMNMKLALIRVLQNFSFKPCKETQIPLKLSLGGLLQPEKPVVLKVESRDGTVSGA

Cytochrome P450 2C19 = Cytochrome P450 2C19 (Homo sapiens, UniProt P33261); experiment: Inhibition of human CYP2C19; assay type: ADME
Chain of Cytochrome P450 2C19 (P33261 whole entry): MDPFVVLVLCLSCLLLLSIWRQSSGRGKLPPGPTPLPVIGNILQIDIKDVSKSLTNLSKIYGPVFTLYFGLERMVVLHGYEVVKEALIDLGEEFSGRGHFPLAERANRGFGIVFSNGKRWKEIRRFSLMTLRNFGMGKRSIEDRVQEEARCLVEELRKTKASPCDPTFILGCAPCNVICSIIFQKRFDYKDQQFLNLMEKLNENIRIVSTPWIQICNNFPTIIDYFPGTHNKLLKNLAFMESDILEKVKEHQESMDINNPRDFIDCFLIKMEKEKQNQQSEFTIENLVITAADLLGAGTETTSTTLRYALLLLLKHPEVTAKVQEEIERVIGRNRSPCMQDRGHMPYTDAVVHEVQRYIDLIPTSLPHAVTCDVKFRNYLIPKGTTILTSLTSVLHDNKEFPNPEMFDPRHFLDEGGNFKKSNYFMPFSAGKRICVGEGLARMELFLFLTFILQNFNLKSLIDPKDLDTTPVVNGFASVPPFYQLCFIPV

Rattus norvegicus [16] = experiment: Biodistribution in Wistar rat assessed as remaining [3H]labeled drug level at 54 umol/kg, iv after 24 hrs; assay type: ADME, organism-based; details: in vivo
[17] = Distribution coefficient, log D at pH 7.4; details: octanol/water
Plasmodium falciparum [18] = experiment: Antimalarial activity against chloroquine-sensitive Plasmodium falciparum HB3; assay type: functional, organism-based
[19] = Clearance in iv dosed rat; assay type: ADME, organism-based; details: in vivo
Kidney [20] = experiment: Biodistribution in cannulated Wistar rat kidney assessed as [3H]labeled drug level at 54 umol/kg, iv after 5 hrs; assay type: ADME, organism-based; details: in vivo
Zone of skin = experiment: Biodistribution in cannulated Wistar rat skin assessed as [3H]labeled drug level at 54 umol/kg, iv after 5 hrs; assay type: ADME, organism-based; details: in vivo
Plasmodium yoelii [21] = experiment: Antimalarial activity as minimal concentration for parasite elimination at day 23 against Plasmodium yoelii 17X intravenously inoculated CD1 mice (Mus musculus) dosed 1 hrs post infection then daily for 4 days
[22] = Oral bioavailability in mouse; assay type: ADME, organism-based; details: in vivo
Plasmodium falciparum [23] = experiment: Antimalarial activity against chloroquine-sensitive Plasmodium falciparum 3D7; assay type: functional, organism-based
Rattus norvegicus [24] = experiment: Biodistribution in Wistar rat assessed as remaining [3H]labeled drug level at 54 umol/kg, iv after 48 hrs; assay type: ADME, organism-based; details: in vivo
Rattus norvegicus [25] = experiment: Metabolic stability in Wistar rat assessed as [3-(tert-Butylamino-methyl)-4-fluoro-phenyl]-(7-chloro-1-oxy-quinolin-4-yl)-amine level at 54 umol/kg, iv administered as [3H]labeled drug after 5 hrs; assay type: ADME, organism-based; details: in vivo
Rattus norvegicus [26] = experiment: Metabolic stability in Wistar rat assessed as 2-[5-(7-Chloro-quinolin-4-ylamino)-2-fluoro-benzylamino]-2-methyl-propionic acids level at 54 umol/kg, iv administered as [3H]labeled drug after 5 hrs; assay type: ADME, organism-based; details: in vivo
Liver [27] = experiment: Biodistribution in cannulated Wistar rat liver assessed as [3H]labeled drug level at 54 umol/kg, iv after 5 hrs; assay type: ADME, organism-based; details: in vivo
Rattus norvegicus [28] = experiment: Drug elimination in Wistar rat assessed as [3H]labeled drug level at 54 umol/kg, iv after 24 hrs; assay type: ADME, organism-based; details: in vivo
Plasmodium falciparum [29] = experiment: Antimalarial activity against chloroquine-resistant Plasmodium falciparum V1/S; assay type: functional, organism-based; details: V1S
Plasmodium berghei = experiment: Antimalarial activity as reduced parasitaemia against Plasmodium berghei ANKA infected CD1 mice (Mus musculus) perorally dosed daily over 4 days; assay type: functional; details: po, 96 h
[30] = (§1) Partition coefficient, log P of the compound; assay type: physicochemical; details: octanol/water
Rattus norvegicus [31] = experiment: Biodistribution in Wistar rat assessed as remaining [3H]labeled drug level at 54 umol/kg, iv after 5 hrs; assay type: ADME, organism-based; details: in vivo
[32] = as §1; assay type: physicochemical; details: octanol/water; remark: listed apart in the source
Cytochrome P450 2C9 = Cytochrome P450 2C9 (Homo sapiens, UniProt P11712); experiment: Inhibition of human CYP2C9; assay type: ADME
Chain of Cytochrome P450 2C9 (P11712 whole entry): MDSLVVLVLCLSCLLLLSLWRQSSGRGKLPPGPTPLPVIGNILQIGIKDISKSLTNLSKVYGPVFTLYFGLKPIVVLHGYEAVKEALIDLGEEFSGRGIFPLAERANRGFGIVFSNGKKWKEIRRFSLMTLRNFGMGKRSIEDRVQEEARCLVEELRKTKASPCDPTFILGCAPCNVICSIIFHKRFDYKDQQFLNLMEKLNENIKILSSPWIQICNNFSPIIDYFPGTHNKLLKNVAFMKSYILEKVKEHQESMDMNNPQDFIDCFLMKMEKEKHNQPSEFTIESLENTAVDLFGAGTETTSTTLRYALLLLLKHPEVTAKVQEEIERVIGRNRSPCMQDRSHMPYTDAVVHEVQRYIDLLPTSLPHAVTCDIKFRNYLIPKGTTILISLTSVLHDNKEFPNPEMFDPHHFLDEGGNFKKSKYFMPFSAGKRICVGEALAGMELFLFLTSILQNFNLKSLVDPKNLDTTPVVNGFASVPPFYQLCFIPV

[33] = Toxicity in po dosed mouse assessed as drug level causing no observed adverse effects administered as once daily for 4 days; assay type: organism-based; details: in vivo, read-out: Activity
Mus musculus [34] = experiment: Toxicity in po dosed mouse assessed as maximal nonlethal dose administered as single dose; assay type: organism-based; details: in vivo
Mus musculus [35] = experiment: Toxicity in po dosed mouse assessed as induction of hematological toxicity at drug dose above no observed adverse effects level; assay type: organism-based; details: in vivo
Cytochrome P450 3A4 [36] = molecular target: T1, Cytochrome P450 3A4; experiment: Inhibition of human CYP3A4 using PPR substrate; assay type: ADME
[37] = Toxicity in po dosed mouse assessed as drug level causing no observed adverse effects administered as single dose; assay type: organism-based; details: in vivo, read-out: Activity
[38] = Biodistribution in cannulated Wistar rat urine assessed as [3H]labeled drug level at 54 umol/kg, iv after 5 hrs; assay type: ADME, organism-based; details: in vivo
[39] = Drug metabolism in cannulated Wistar rat assessed as urinary excretion of [3H]labeled drug level at 54 umol/kg, iv after 5 hrs; assay type: ADME, organism-based, Urine; details: in vivo
Rattus norvegicus [40] = experiment: Metabolic stability in Wistar rat assessed as (2S,3S,4S,5R,6S)-6-{2-[5-(7-Chloro-quinolin-4-ylamino)-2-fluoro-benzylamino]-2-methyl-propionyloxy}-3,4,5-trihydroxy-tetrahydro-pyran-2-carboxylic acid level at 54 umol/kg, iv administered as [3H]labeled drug after 5 hrs; assay type: ADME, organism-based; details: in vivo
[41] = Drug metabolism in cannulated Wistar rat assessed as biliary excretion of [3H]labeled drug level at 54 umol/kg, iv after 5 hrs; assay type: ADME, organism-based, Bile; details: in vivo
Lung = experiment: Biodistribution in Wistar rat lung assessed as [3H]labeled drug level at 54 umol/kg, iv after 24 hrs; assay type: ADME, organism-based; details: in vivo
Plasmodium yoelii [42] = experiment: Antimalarial activity as reduced parasitaemia against Plasmodium yoelii 17X infected CD1 mice (Mus musculus) perorally dosed daily for 4 days; assay type: functional; details: po, 96 h
Rattus norvegicus [43] = experiment: Biodistribution in Wistar rat assessed as remaining [3H]labeled drug level at 54 umol/kg, iv after 168 hrs; assay type: ADME, organism-based; details: in vivo
[44] = Oral bioavailability in rat; assay type: ADME, organism-based; details: in vivo
Cytochrome P450 2D6 = Cytochrome P450 2D6 (Homo sapiens, UniProt P10635); experiment: Inhibition of human CYP2D6; assay type: ADME
Chain of Cytochrome P450 2D6 (P10635 whole entry): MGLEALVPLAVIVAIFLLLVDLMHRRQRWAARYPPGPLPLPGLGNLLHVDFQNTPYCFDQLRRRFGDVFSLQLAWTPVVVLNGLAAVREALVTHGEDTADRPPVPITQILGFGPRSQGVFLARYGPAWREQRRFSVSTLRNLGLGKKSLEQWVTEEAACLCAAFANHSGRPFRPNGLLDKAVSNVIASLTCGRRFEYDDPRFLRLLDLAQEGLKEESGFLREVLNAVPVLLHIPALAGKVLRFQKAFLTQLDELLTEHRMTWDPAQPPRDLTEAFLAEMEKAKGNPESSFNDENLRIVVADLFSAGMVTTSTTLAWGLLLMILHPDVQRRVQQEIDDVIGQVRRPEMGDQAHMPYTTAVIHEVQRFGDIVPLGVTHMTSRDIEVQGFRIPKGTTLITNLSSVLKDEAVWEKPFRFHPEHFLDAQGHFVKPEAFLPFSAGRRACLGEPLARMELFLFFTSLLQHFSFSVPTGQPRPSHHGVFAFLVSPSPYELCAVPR

Q: For `CC(C)(C)NCc1cc(Nc2ccnc3cc(Cl)ccc23)ccc1F`, which CC50 at 6 h [1] is on record?
A: Its CC50 at 6 h is 385000 nM.

Q: And the IC50 (Plasmodium falciparum [2])?
A: The IC50 was 22 nM.

Q: What about the log Ks (Heme [3]) of the same compound?
A: Its log Ks is 5.45.

Q: And the IC50 (Plasmodium falciparum [4])?
A: The IC50 was 29.2 nM.

Q: And the half-life [5]?
A: The half-life was 7 h.

Q: What about the Drug uptake (Kidney [6]) of the same compound?
A: Its Drug uptake is 1.48 %ID.

Q: And the IC50 (Plasmodium falciparum [7])?
A: The IC50 was 25.8 nM.

Q: What about the Activity (Mus musculus [8]) of the same compound?
A: Its Activity is “Toxic”.

Q: And the IC50 (Plasmodium falciparum [9])?
A: Its IC50 is 17.3 nM.

Q: And the IC50 (Plasmodium falciparum [10])?
A: Its IC50 is 21.9 nM.

Q: What about the Activity [11] of the same compound?
A: The Activity was 9.16 %ID.

Q: And the Drug uptake (Liver [12])?
A: The Drug uptake was 6.57 %ID.

Q: And the log Ks (Heme [13])?
A: Its log Ks is 5.68.

Q: What about the clearance [14] of the same compound?
A: Its clearance is 40.4 mL/min/kg.

Q: What about the IC50 (Cytochrome P450 3A4 [15]) of the same compound?
A: The IC50 was greater than 100000 nM.

Q: What about the IC50 (Cytochrome P450 2C19) of the same compound?
A: Its IC50 is 64000 nM.

Q: And the Activity (Rattus norvegicus [16])?
A: Its Activity is 14.76%.

Q: What about the logD [17] of the same compound?
A: The logD was 2.4.

Q: And the IC50 (Plasmodium falciparum [18])?
A: Its IC50 is 14.6 nM.

Q: What about the clearance [19] of the same compound?
A: The clearance was 35 mL/min/kg.

Q: What about the Drug uptake (Kidney [20]) of the same compound?
A: The Drug uptake was 3.97 %ID.

Q: What about the Drug uptake (Zone of skin) of the same compound?
A: Its Drug uptake is 12.44 %ID.

Q: And the Activity (Plasmodium yoelii [21])?
A: Its Activity is greater than 40 mg/kg.

Q: And the bioavailability [22]?
A: The bioavailability was 37%.

Q: What about the IC50 (Plasmodium falciparum [23]) of the same compound?
A: The IC50 was 12.1 nM.

Q: And the Activity (Rattus norvegicus [24])?
A: Its Activity is 72.79%.

Q: What about the Activity (Rattus norvegicus [25]) of the same compound?
A: Its Activity is 3.55%.

Q: And the Activity (Rattus norvegicus [26])?
A: The Activity was 14.22%.

Q: What about the Drug uptake (Liver [27]) of the same compound?
A: Its Drug uptake is 17.49 %ID.

Q: And the Activity (Rattus norvegicus [28])?
A: The Activity was 51.36%.

Q: And the IC50 (Plasmodium falciparum [29])?
A: The IC50 was 26.1 nM.

Q: What about the ED50 (Plasmodium berghei) of the same compound?
A: Its ED50 is 5.3 mg/kg.

Q: And the ED90 (Plasmodium berghei)?
A: Its ED90 is 12.4 mg/kg.

Q: What about the logP [30] of the same compound?
A: The logP was 4.74.

Q: What about the Activity (Rattus norvegicus [31]) of the same compound?
A: The Activity was 38.54%.

Q: What about the logP [32] of the same compound?
A: The logP was 5.15.

Q: What about the IC50 (Cytochrome P450 2C9) of the same compound?
A: The IC50 was 52000 nM.

Q: What about the NOAEL at 96 h [33] of the same compound?
A: Its NOAEL at 96 h is 100 mg/kg.

Q: And the Activity (Mus musculus [34])?
A: Its Activity is 610 mg/kg.

Q: What about the Activity (Mus musculus [35]) of the same compound?
A: The Activity was “Toxic”.

Q: And the IC50 (Cytochrome P450 3A4 [36])?
A: The IC50 was “Active”.

Q: What about the NOAEL [37] of the same compound?
A: Its NOAEL is 300 mg/kg.

Q: And the Activity [38]?
A: Its Activity is 8.06 %ID.

Q: What about the Activity [39] of the same compound?
A: Its Activity is 8.06%.

Q: And the Activity (Rattus norvegicus [40])?
A: The Activity was 9.95%.

Q: And the Activity [41]?
A: Its Activity is 9.16%.

Q: What about the Drug uptake (Lung) of the same compound?
A: The Drug uptake was 1.17 %ID.

Q: And the ED50 (Plasmodium yoelii [42])?
A: The ED50 was 7.7 mg/kg.

Q: What about the ED90 (Plasmodium yoelii [42]) of the same compound?
A: Its ED90 is 10.6 mg/kg.

Q: And the Activity (Rattus norvegicus [43])?
A: Its Activity is 1.22%.

Q: And the bioavailability [44]?
A: The bioavailability was 100%.

Q: What about the IC50 (Cytochrome P450 2D6) of the same compound?
A: Its IC50 is 300 nM.
